According to patent US9877962B2, “Piperazinyl derivatives for the treatment of cancer” (priority 2011, dated 2018):
Converted amounts (≈) assume the structure as drawn. Read-outs that look alike come from different tables or passages of the source. Each block holds one compound with its values, some of them ahead of it.

Legend:
[1] = Determination of aqueous solubility; format: physicochemical; conditions: aqueous medium, aqueous buffer, thermodynamic from solid, pH 7.4, agitation 24 h, 20° C., HPLC
Description: The aqueous solubility of each compound was measured at pH 7.4. It was measured using HPLC on the supernatants obtained by centrifugation after saturation of the media with excess compound after an agitation time of 24 h and at a temperature of 20° C. The preparation and treatment of the samples was robotized.

[2] = Pharmacokinetic parameters in mice; format: in vivo, balb/c mice; conditions: for AUC(0-inf) / AUC(0-t) / Cmax / half-life: mouse, balb/c mice, intravenous route, 10 mg/kg, plasma; for half-life: read-out: t½ (converted)
Description: The pharmacokinetic behaviour of compounds is a pre-requisite for reasonable use thereof in in vivo experimentation. The compounds were given in DMSO solution via intravenous route (IV) or oral route (PO) to balb/c mice. Blood samples were taken at times ranging from 5 minutes to 6 hours, the plasmas were collected and the concentration of the compounds in each sample was assayed by LC/MS/MS. The data obtained allowed the plotting of time-concentration curves and determination of fundamental parameters such as plasma half-life of the compound (T½), area under curve at a given time (AUCt) and the maximum concentration obtained (Cmax).

[3] = system: HL-60; experiment: Cytotoxicity test (ViaLight Plus cell proliferation) on HL-60; format: cell-based, human; conditions: 72 hours' incubation, cell viability vs 0.5% DMSO control; for IC50: HL-60, 72 h, read-out: EC50 HL-60
Description: (§1) The effects of the compounds of the invention on the proliferation of cancer cells were studied on different human cancer cell lines of different tissue origin (MCF-7: breast cancer, MCF-7/adr adriamycin-resistant breast cancer, HL-60: acute promyelocytic leukaemia, HL-60/R10: doxorubicin-resistant acute promyelocytic leukaemia, HT29: colon adenocarcinoma, Mia Paca2: pancreatic tumour, Panc-1: pancreatic exocrine tumour, SK-OV-3: cisplatin- and adriamycin resistant ovarian cancer). The cancer cells used for this study were incubated at 37° C. in the presence of one of the compounds of the invention added to the culture medium at different concentrations.
(§2) The cancer cell lines were obtained from ATCC (American Type Culture Collection) for MCF-7, from Hôpital de la Pitié Salpetrière for MCF-7/adr and from Oncodesign (Dijon, France) for HL-60, HL-60/R10, HT29, MiaPaCa2, Panc-1 and SK-OV-3. They were cultured in RPMI 1640 medium containing 2 mM L-Glutamine supplemented with 10% foetal calf serum (Lonza; Verviers, Belgium). All the cell lines were held in culture at 37° C. in a humid atmosphere containing 5% CO2. Cell proliferation was assessed using the ViaLight® Plus Assay Kit (Lonza; Verviers, Belgium) following the manufacturer's instructions. The cells were seeded in 96-well culture plates compatible with luminescence read-off (white plates with transparent bottom) in a proportion of 5 000 to 10 000 cells per well in 100 μl of culture medium. After a pre-incubation time of 24 hours at 37° C., the compounds of the invention dissolved in dimethylsulfoxide (DMSO) were individually added to each well in a proportion of 0.5 μl per well. After 72 hours' incubation at 37° C. in a humid atmosphere containing 5% CO2, 50 μl of lysis buffer were added to each well and 15 minutes later 100 μl of ATP measuring agent were added. The plates were read under a luminometer to evaluate cell viability. The data obtained was processed by computer to obtain the EC50 value i.e. the concentration value of each of the compounds which induces 50% cell viability compared with a control value (0.5% DMSO alone).

[4] = system: HL-60/R10; experiment: Cytotoxicity test (ViaLight Plus cell proliferation) on HL-60/R10; format: cell-based, human; conditions: doxorubicin-resistant line, 72 hours' incubation, cell viability vs 0.5% DMSO control, read-out: EC50 HL60/R10; for IC50: HL-60, 72 h
Description: as §1, §2

[5] = system: MCF-7; experiment: Cytotoxicity test (ViaLight Plus cell proliferation) on MCF-7; format: cell-based, human; conditions: 72 hours' incubation, cell viability vs 0.5% DMSO control; for IC50: Homo sapiens, MCF7, 72 h, read-out: EC50 MCF-7
Description: as §1, §2

[6] = system: MCF-7/adr; experiment: Cytotoxicity test (ViaLight Plus cell proliferation) on MCF-7/adr; format: cell-based, human; conditions: adriamycin-resistant line, 72 hours' incubation, cell viability vs 0.5% DMSO control; for IC50: Homo sapiens, NCI/ADR-RES, 72 h, read-out: EC50 MCF-7/adr
Description: as §1, §2

[7] = system: HT29; experiment: Cytotoxicity test (ViaLight Plus cell proliferation) on HT29; format: cell-based, human; conditions: 72 hours' incubation, cell viability; for IC50: Homo sapiens, HT-29, read-out: EC50 HT29
Description: as §1, §2

[8] = system: Mia PaCa2; experiment: Cytotoxicity test (ViaLight Plus cell proliferation) on Mia PaCa2; format: cell-based, human; conditions: 72 hours' incubation, cell viability; for IC50: Homo sapiens, MIA PaCa-2, read-out: EC50 Mia PaCa2
Description: as §1, §2

[9] = system: Panc-1; experiment: Cytotoxicity test (ViaLight Plus cell proliferation) on Panc-1; format: cell-based, human; conditions: 72 hours' incubation, cell viability; for IC50: Homo sapiens, PANC-1, read-out: EC50 Panc-1
Description: as §1, §2

[10] = system: SK-OV-3; experiment: Cytotoxicity test (ViaLight Plus cell proliferation) on SK-OV-3; format: cell-based, human; conditions: cisplatin- and adriamycin resistant line, 72 hours' incubation, cell viability; for IC50: Homo sapiens, SK-OV-3, read-out: EC50 SK-OV-3
Description: as §1, §2

Compound: CC(C)[C@H]1CN(C(=O)C(c2cccs2)N(C(=O)CCl)c2ccc(Oc3ccccc3)cc2)CCN1 (stereo partly drawn)
solubility at 24 h [1]: 50 µg/mL (≈ 97.6 µM)

Compound: CC(C)[C@H]1CN(C(=O)C(c2ccc(F)cc2)N(C(=O)CCl)c2ccc(Oc3ccccc3)cc2)CCN1 (single isomer, unassigned) [I-3 dia2]
EC50 [3]: 504 nM
EC50 [4]: 2 nM
EC50 [5]: 301 nM
EC50 [6]: 9 nM
IC50 [7]: 1 nM
IC50 [8]: 2 nM
IC50 [9]: 1 nM
IC50 [10]: 1 nM

Compound: Cc1cc(Oc2ccccc2)ccc1N(C(=O)CCl)C(C(=O)N1CCN[C@@H](C(C)C)C1)c1ccc(F)cc1 (single isomer, unassigned) [I-7 dia2]
EC50 [3]: 1940 nM
EC50 [4]: 26 nM
EC50 [5]: 1950 nM
EC50 [6]: 98 nM
IC50 [7]: 8 nM
IC50 [8]: 13 nM
IC50 [9]: 5 nM
IC50 [10]: 7 nM

Compound: Cc1cc(Oc2ccccc2)ccc1N(C(=O)CCl)C(C(=O)N1CCN[C@@H](C(C)C)C1)c1cccs1 (single isomer, unassigned; dia2) [I-46 dia2]
EC50 [3]: 449 nM
EC50 [4]: 10 nM
EC50 [5]: 1180 nM
EC50 [6]: 58 nM
EC50 [7]: 6 nM
EC50 [8]: 10 nM
EC50 [9]: 4 nM
EC50 [10]: 6 nM

Compound: CC(C)[C@H]1CN(C(=O)C(c2cccs2)N(C(=O)CCl)c2cccc(C(F)(F)F)c2)CCN1 (single isomer, unassigned; dia2) [I-50 dia2]
EC50 [3]: 841 nM
EC50 [4]: 8 nM
EC50 [7]: 9 nM
EC50 [8]: 2200 nM
EC50 [9]: 9 nM
EC50 [10]: 11 nM

Compound: C[C@H]1CN(C(=O)C(c2cccs2)N(C(=O)CCl)c2ccc(Oc3ccccc3)cc2)CCN1.Cl (stereo partly drawn) [Example I-58]
IC50 ([3]; Homo sapiens): 1060 nM
EC50 ([3]; Homo sapiens, HL-60): 1060 nM
IC50 ([4]; Homo sapiens): 11 nM
EC50 ([4]; Homo sapiens, HL-60): 11 nM
IC50 [5]: 870 nM
IC50 [6]: 88 nM
solubility at 24 h [1]: 203 µg/mL

Compound: C[C@@H]1CN(C(=O)C(c2cccs2)N(C(=O)CCl)c2ccc(Oc3ccccc3)cc2)CCN1.Cl (stereo partly drawn) [Example I-59]
IC50 ([3]; Homo sapiens): 956 nM
IC50 ([4]; Homo sapiens): 16 nM
EC50 ([4]; Homo sapiens, HL-60): 16 nM
IC50 [5]: 745 nM
IC50 [6]: 106 nM
solubility at 24 h [1]: 152 µg/mL

Compound: C[C@H]1CNCCN1C(=O)C(c1cccs1)N(C(=O)CCl)c1ccc(Oc2ccccc2)cc1.Cl (stereo partly drawn) [reference compound]
IC50 ([3]; Homo sapiens): 662 nM
IC50 ([4]; Homo sapiens): 65 nM
solubility at 24 h [1]: 105 µg/mL

Compound: tert-butyl ester of 4-[-2-[(2-chloro-acetyl)-(4-phenoxy-phenyl)-amino]-2-(4-fluoro-phenyl)-acetyl]-(R)-2-isopropyl-piperazine-1-carboxylic acid [I-2 dia1]
EC50 [3]: 728 nM
EC50 [4]: 40 nM
EC50 [5]: 2090 nM
EC50 [6]: 49 nM

Continued, in another order:

AUC(0-inf) [2]: 3840 ng·h/mL
AUC(0-t) [2]: 3290 ng·h/mL
Cmax [2]: 3800 ng/mL
half-life [2]: 2.64 h
Compound: Cc1cc(Oc2ccccc2)ccc1N(C(=O)CCl)C(C(=O)N1CC(C)NC(C)C1)c1cccs1.Cl (stereo not drawn)

AUC(0-inf) [2]: 2060 ng·h/mL
AUC(0-t) [2]: 1680 ng·h/mL
Cmax [2]: 1420 ng/mL
half-life [2]: 2.47 h
Compound: Cc1cc(Oc2ccccc2)ccc1N(C(=O)CCl)C(C(=O)N1CCN[C@@H](C)C1)c1cccs1.Cl (stereo partly drawn)

bioavailability in a mouse ([2]; IV 10 mg/kg or PO 30 mg/kg, FIG. 1): good bioavailability
Compound: Cc1cc(Oc2ccccc2)ccc1N(C(=O)CCl)C(C(=O)N1CCN[C@@H](C)C1)c1cccs1 (single isomer, unassigned) [I-43 dia2]
IC50 ([3]; Homo sapiens): 1890 nM
IC50 ([4]; Homo sapiens): 20 nM
IC50 [5]: 1420 nM
IC50 [6]: 126 nM
IC50 [7]: 10 nM
IC50 [8]: 18 nM
IC50 [9]: 7 nM
IC50 [10]: 9 nM

solubility at 24 h [1]: 68 µg/mL
Compound: Cl.O=C(C(c1cccs1)N(C(=O)CCl)c1ccc(Oc2ccccc2)cc1)N1CCNCC1 (stereo not drawn) [reference compound]
IC50 ([3]; Homo sapiens): 579 nM
IC50 ([4]; Homo sapiens): 21 nM

AUC(0-inf) [2]: 1320 ng·h/mL
AUC(0-t) [2]: 1280 ng·h/mL
Cmax [2]: 1470 ng/mL
half-life [2]: 1.38 h
Compound: Cc1cc(Oc2ccccc2)ccc1N(C(=O)CCl)C(C(=O)N1CCNCC1)c1cccs1.Cl (stereo not drawn) [reference compound]
